Structures can show the parent of a compound that is named as a salt.
Assays:
Candida albicans MY 1028 = assay: Minimum fungicidal concentration (MFC), microbroth dilution assay in YNBD; type: cell-based; details: MY1028, 35°C 24 hours, then SDA 24 hours at 28°C
Excerpt: (§1) The compounds of the present invention are active against many fungi and as previously indicated particularly against Candida species. The antifungal properties may be illustrated with the minimum fungicidal concentration (MFC) determination against certain Candida organisms in a microbroth dilution assay carried out in a Yeast Nitrogen Base (Difco) medium with 1 percent dextrose (YNBD).
(§2) In carrying out the assay, Compound I was solubilized in 10 percent dimethyl sulfoxide (DMSO) and diluted to 2560 µg/ml. The compound was then diluted to 256 µg/ml in YNBD. 0.15 mL of the suspension was dispensed to the top row of a 96-well plate (each well containing 0.15 ml of YNBD) resulting in a drug concentration of 128 µg/ml. Two-fold dilutions were then made from the top row to obtain final drug concentrations ranging from 128 to 0.06 µg/ml. […]
(§3) 96-well microplates were inoculated-using a MIC-2000 (Dynatech) which delivers […] per well yielding a final inoculum per well of 1.5-7.5 x 10^3 cells. […] The minimum inhibitory concentrations (MICs) were recorded as the lowest concentrations of drug showing no visible growth.
(§4) After recording the MIC, the plates were shaken to resuspend the cells. […] The inoculated trays were incubated 24 hours at 28°C and then read for minimum fungicidal concentration (MFC). […]

Candida albicans MY 1055 = assay: as above; type: cell-based; details: MY1055, 35°C 24 hours, then SDA 24 hours at 28°C
Excerpt: as §1, §2, §3, §4

red blood cells = assay: Red blood cell lysis, minimum lytic concentration; type: cell-based, human
Excerpt: A harmful and potentially fatal side reaction of a number of drugs including certain antibiotically active echinocandin compounds is red blood cell lysis. […] The blood cell lysis property may be seen in the determination carried out in the following manner.
The blood employed is a 4 percent suspension of freshly drawn heparinized blood prepared by adding 2 milliliters of blood to 50 milliliters of sterile 5 percent dextrose.
Compound I was solubilized in a small volume of dimethylsulfoxide (DMSO) that was then diluted with distilled water to a final concentration of 5 percent DMSO to obtain a drug suspension of 4.0 mg/ml. A 0.2 milliliter amount of the drug suspension was added to 1.4 milliliters of sterile 5 percent dextrose to obtain the test suspension. A diluent control was also prepared.
A 96-well microliter plate with a well volume of 0.35 ml was used for the assay. Columns 2-12 were filled with 150 µl of sterile 5 percent dextrose. Then, 300 µl of test suspensions were dispensed into the wells in column 1 and serially two-fold diluted in 5 percent dextrose to yield final test concentrations of from 400 to 0.20 µg/ml. […]

[1] = system: Candida albicans (MY 1055); assay: In vivo kidney CFU reduction in mice infected with Candida albicans; design: species or system female DBA/2 mice; details: 0.4 mg/kg I.P. twice daily for four consecutive days; kidneys after seven days
Experimental: Growth from an overnight SDA culture of Candica albicans MY 1055 was suspended in sterile saline and the cell concentration determined by hemacytometer count and the cell suspension adjusted to 3.75 x 10^5 cells/ml. Then 0.2 milliliter of this suspension was administered I.V. in the tail vein of mice so that the final inoculum was 7.5 x 10^4 cells/mouse.
The assay then was carried out by administering aqueous solutions of Compound I at various concentrations intraperitoneally (I.P.), twice daily (b.i.d.) for four consecutive days to 18 to 20 gram female DBA/2 mice, which previously had been infected with Candida albicans (MY 1055) in the manner described above. Distilled water was administered I.P. to C. albicans challenged mice as controls. After seven days, the mice were sacrificed by carbon dioxide gas, paired kidneys were removed aseptically and placed in sterile polyethylene bags containing 5 milliters of sterile saline. The kidneys were homogenized in the bags, serially diluted in sterile saline and aliquots spread on the surface of SDA plates. The plates were incubated at 35°C for 48 hours and yeast colonies were enumerated for determination of colony forming units (CFU) per gram of kidneys.

With CCC(C)CC(C)CCCCCCCCC(=O)NC1CC(O)C(OCCN)NC(=O)C2C(O)CCN2C(=O)C(C(O)CC(N)=O)NC(=O)C(C(O)C(O)c2ccc(O)cc2)NC(=O)C2CC(O)CN2C(=O)C(C(C)O)NC1=O (centres unmarked) [Compound I, 1-[4-hydroxy-5-aminoethyloxy-N^2-(10,12-dimethyl-1-oxotetradecyl)-ornithine]-5-(3-hydroxyglutamine)-6-(3-hydroxyproline)-echinocandin B trifluoroacetate] the MFC (Candida albicans MY 1028) was 0.25 µg/mL, the MFC (Candida albicans MY 1055) was 0.125 µg/mL and the “red blood cell lysis” value (red blood cells; at concentrations far beyond what would be used for therapeutic purposes) was “no red blood cell lysis”. The “Minimum lytic concentration (MLC)” value (red blood cells; lowest concentration producing complete or partial lysis, 2 hours at room temperature, tested 400 to 0.20 µg/ml) was 400 µg/mL and the “reduction of recoverable Candida CFUs” value [1] was “greater than 99%”.

Reference: patent EP0539088B1, “Echinocandin b derivative” (MERCK & CO. INC., priority 1991, dated 1993)
